Laboratory results from patent US20250059232A1, “PENTAPEPTIDE AND USE THEREOF” (ENSOL BIOSCIENCES INC., priority 2021, published 2025).
Each block holds one compound with its values, some of them ahead of it.

How the values were obtained:
4T1 cells = test: Syngeneic model implanted with paclitaxel-resistant 4T1 cells: tumor volume, Western blot of cleaved PARP and LC3II; type: in vivo, mouse; conditions: paclitaxel only
Method: Cell death and autophagy marker changes were determined by the Western blot method, using a syngeneic model implanted with 4T1 cells (American Type Culture Collection (ATCC)), which are mouse triple negative breast cancer tumor cells resistant to paclitaxel. The drug administration was started, when the tumor volume was reached to 70 mm^3 after a fat pad of Balb/c mice (6 weeks old, female) was transplanted with 4T1 cells in a concentration of 1×10^6 cells/head. For Week 1, paclitaxel 20 mg/kg was administered on Day 1 and Day 2, and the peptide (10, 100 mg/kg) of Example 1 was co-administered on Day 3, Day 5, and Day 7. In addition, the same process was performed for each of Week 2, and Week 3 (n=3). The tumor volumes were measured daily because the tumors grew very quickly. The changes in cleaved PARP, which is a cell death marker, and the changes in LC3II, which is an autophagy marker, in tumors were analyzed after necropsy on the day after the end of the 3-week administration, by a Western blot test.
FIG. 5 is a graph illustrating the results of tumor volume measurements according to the number of days after treatment in animal experimentation. In FIG. 5, the x-axis represents the number of days elapsed after treatment and the y-axis represents the tumor volume change (mm^3).
In addition, the changes in cleaved PARP, which is a cell death marker, are shown in FIG. 6, and the changes in LC3II, which is an autophagy marker, are shown in FIG. 7. FIG. 6 is a graph showing the changes in expression of cleaved PARP, which is a cell death marker, for each treatment group in animal experimentation, and FIG. 7 is a graph showing the changes in expression of LC3II, which is an autophagy marker, for each treatment group in animal experimentation.

MDA-MB-231 [1] = test: MDA-MB-231 xenograft in BalB/c nude mouse: survival rate; type: in vivo; conditions: paclitaxel only
Method: To investigate survival rates of the paclitaxel-only administration group and the group co-administered with paclitaxel and the peptide of Example 1, experiments described below were performed. 5×10^6 cells/head of the human triple negative breast cancer cell line MDA-MB-231 were mixed with Matrigel and PBS (1:1). 100 ul of the mixture was injected into the right third fat pad of 7-week-old female BalB/c nude mouse. After the transplantation, drug administration started from an average tumor size of 70 mm^3. Paclitaxel 20 mg/kg was administered once weekly, and the peptide 100 mg/kg of Example 1 was administered subcutaneously 3 times weekly at 48-hour intervals, 48 hours after the paclitaxel administration. Each test group was administered for 12 weeks and animal survival was observed daily. FIG. 10 is a graph illustrating survival rates over time after sample administration in animal experimentation. In FIG. 10, the x-axis represents the elapsed time (days) after administration and the y-axis represents survival rates (%). […] In the case of the group co-administered with the peptide of Example 1, the first deceased mouse occurred on Day 60 of administration.

MDA-MB-231 [2] = test: MDA-MB-231 fat pad xenograft in athymic nude mouse: tumor volume and weight; type: in vivo, human; conditions: paclitaxel only
Method: 5×10^6 cells/head of the human triple negative breast cancer cell line MDA-MB-231 (American Type Culture Collection (ATCC)) were mixed with Matrigel and PBS (1:1). 100 ul of the mixture was injected into the right third fat pad of 7-week-old female athymic nude mouse. After the transplantation, drug administration started from an average tumor size of 80 mm^3. Paclitaxel 20 mg/kg was administered on Day 0 and on Day 1. That is, the paclitaxel 20 mg/kg was administered a total of two times. Then, the peptide of Example 1 was administered in a dose of 100 mg/kg on Day 2, Day 4, and Day 6. That is, the peptide of Example 1 was administered a total of three times. Tumor volumes were measured 3 times a week for 3 weeks after administration of the first dose. Tumor weights were measured by necropsy after the end of the experiment. For each group, ten mice were used.
Tumor volume changes over time for each group are shown in FIG. 8, and tumor weight on the eighteenth day after the administration of the first dose for each group is shown in FIG. 9. FIG. 8 is a graph illustrating the changes in tumor volume over time after sample administration in animal experimentation. In FIG. 8, the x-axis represents the number of days elapsed after the start of administration and the y-axis represents the tumor volume change (mm^3). FIG. 9 is a graph illustrating a tumor weight for each test group in animal experimentation. In FIG. 9, the x-axis represents test groups and the y-axis represents tumor weights (mg).

[3] = Stability test: HPLC relative purity of peptide dissolved in buffer, by pH and temperature; type: physicochemical
Method: For Example 1 and Comparative Example 1, stability tests according to pH for each temperature were performed.
Stability tests for each peptide were performed by liquid chromatography purity analysis for each temperature and each pH according to analysis timing (initial, 24 hours, 130 hours). […] Samples were analyzed by injecting 20 ul of each sample with an auto-sample injector, and the analysis column was Inspire C18 (4.6×250 mm, […], 12 nm) manufactured by Dikma. The analysis temperature was 40° C., and a UV wavelength of 215 nm was used.
On the basis of the HPLC analysis results, relative purity was calculated for Comparative Example 1 and Example 1 for each storage condition. The relative purity is the percentage of measured purity changing according to the storage period, with the initial purity being set to 100% for each sample. FIGS. 1 and 2 are graphs showing the results of stability tests for Example and Comparative Example stored at a temperature of 25° C., in which FIG. 1 is a graph of a test result for 24 hours of storage, and FIG. 2 is a graph of a test result for 130 hours of storage. FIGS. 3 and 4 are graphs showing the results of stability tests for Example and Comparative Example stored at 40° C., in which FIG. 3 is a graph of a test result for 24 hours of storage, and FIG. 4 is a graph of a test result for 130 hours of storage. In each graph, the x-axis represents the test group by pH and the y-axis represents the relative purity […].

[4] = eighteenth day after first dose

Compound: CC(=O)O[C@H]1C(=O)[C@@]2(C)[C@H]([C@H](OC(=O)c3ccccc3)[C@]3(O)C[C@H](OC(=O)[C@H](O)[C@@H](NC(=O)c4ccccc4)c4ccccc4)C(C)=C1C3(C)C)[C@]1(OC(C)=O)CO[C@@H]1C[C@@H]2O [paclitaxel, reference compound]
Reduction in tumor volume compared to the control group (4T1 cells; 20 mg/kg, Balb/c mice): insignificant reduction in tumor volume | Increase in LC3II expression level in tumor compared to control group (4T1 cells; Western blot after 3-week administration): 2.4 fold | Day of administration on which the first deceased mouse occurred (MDA-MB-231 [1]; 20 mg/kg once weekly): 21 days | Survival rate after the end of the experiment (MDA-MB-231 [1]; 12 weeks): 30% | CR (mice in which the tumor disappeared) (MDA-MB-231 [2]; 20 mg/kg Day 0 and Day 1, ten mice): 10% | Reduction in tumor volume compared to control group (MDA-MB-231 [2]; [4]): 33% | Reduction in tumor weight compared to control group (MDA-MB-231 [2]; [4]): 34.5% | Day on which the tumor disappeared (MDA-MB-231 [2]; one mouse): 16 days

Relative purity ([3]; pH 2, 25 ± 2° C., RH 60 ± 5%, storage 0 hours (initial set to 100%)): 100.0% | Relative purity ([3]; pH 2, 25 ± 2° C., RH 60 ± 5%, storage 24 hours): 79.0% | Relative purity ([3]; pH 2, 25 ± 2° C., RH 60 ± 5%, storage 130 hours): 25.0% | Relative purity ([3]; pH 2, 40 ± 2° C., RH 75 ± 5%, storage 0 hours (initial set to 100%)): 100.0% | Relative purity ([3]; pH 2, 40 ± 2° C., RH 75 ± 5%, storage 24 hours): 27.6% | Relative purity ([3]; pH 2, 40 ± 2° C., RH 75 ± 5%, storage 130 hours): 0.3% | Relative purity ([3]; pH 5, 25 ± 2° C., RH 60 ± 5%, storage 0 hours (initial set to 100%)): 100.0% | Relative purity ([3]; pH 5, 25 ± 2° C., RH 60 ± 5%, storage 24 hours): 77.9% | Relative purity ([3]; pH 5, 25 ± 2° C., RH 60 ± 5%, storage 130 hours): 21.7% | Relative purity ([3]; pH 5, 40 ± 2° C., RH 75 ± 5%, storage 0 hours (initial set to 100%)): 100.0% | Relative purity ([3]; pH 5, 40 ± 2° C., RH 75 ± 5%, storage 24 hours): 21.8% | Relative purity ([3]; pH 5, 40 ± 2° C., RH 75 ± 5%, storage 130 hours): 0.1% | Relative purity ([3]; pH 7, 25 ± 2° C., RH 60 ± 5%, storage 0 hours (initial set to 100%)): 100.0% | Relative purity ([3]; pH 7, 25 ± 2° C., RH 60 ± 5%, storage 24 hours): 28.5% | Relative purity ([3]; pH 7, 25 ± 2° C., RH 60 ± 5%, storage 130 hours): 0.1% | Relative purity ([3]; pH 7, 40 ± 2° C., RH 75 ± 5%, storage 0 hours (initial set to 100%)): 100.0% | Relative purity ([3]; pH 7, 40 ± 2° C., RH 75 ± 5%, storage 24 hours): 0.2% | Relative purity ([3]; pH 7, 40 ± 2° C., RH 75 ± 5%, storage 130 hours): 0.0% | Relative purity ([3]; pH 9, 25 ± 2° C., RH 60 ± 5%, storage 0 hours (initial set to 100%)): 100.0% | Relative purity ([3]; pH 9, 25 ± 2° C., RH 60 ± 5%, storage 24 hours): 50.2% | Relative purity ([3]; pH 9, 25 ± 2° C., RH 60 ± 5%, storage 130 hours): 2.4% | Relative purity ([3]; pH 9, 40 ± 2° C., RH 75 ± 5%, storage 0 hours (initial set to 100%)): 100.0% | Relative purity ([3]; pH 9, 40 ± 2° C., RH 75 ± 5%, storage 24 hours): 8.5% | Relative purity ([3]; pH 9, 40 ± 2° C., RH 75 ± 5%, storage 130 hours): 0.0%
Compound: QLHLD [Comparative Example 1, reference compound]
Stability (summary in words) ([3]; liquid state, pH 2-9, 25 and 40° C., up to 130 hours): in some cases, the samples were not stable
